Experimental data published in article PMC11117207, “Discovery of Antimicrobial Agents Based on Structural and Functional Study of the Klebsiella pneumoniae MazEF Toxin–Antitoxin System” (Antibiotics, 2024).

These substances were tested on K. pneumoniae MazEF complex (assay: In vitro assay of MazEF complex disruption by peptides (RNase Alert fluorescence assay)). Details: 20 μM peptide, 4 μM MazEF complex; 20 mM Tris pH 8.0, 200 mM NaCl; 30 min at 37 °C; RFU of 4 μM MazF = 100%, of 4 μM MazEF ~0%; three independent experiments.
Type: biochemical, Klebsiella pneumoniae
Description: To validate the ribonuclease activity of MazF toxin, an RNase Alert Kit (IDT, Coralville, IA, USA) was used. The principle is as follows. In the normal state, a fluorophore is covalently attached to one end of a synthetic RNA strand and is quenched by a quencher group at the other end of the RNA strand. However, the synthetic RNA is digested and the quencher is released when the ribonuclease interacts with substrates. Then, the released fluorophore emits fluorescence at 520 nm upon excitation at 490 nm. The resulting relative fluorescence units (RFU) were detected using a SPECTRAmax GEMINI XS spectrofluorometer (Molecular Devices, San Jose, CA, USA). All experiments were performed in triplicate.
In addition to the disruption assay using small molecules, 10 short peptides that mimic the binding region between MazE and MazF were designed based on the tertiary crystal structure of the MazEF complex and purchased from ANYGEN (http://www.anygen.com, accessed on 21 April 2024) (Table 1). Among the peptides tested, six were designed to mimic the region on MazE where it binds to MazF, while the remaining four were designed to mimic the region on MazF where it binds to MazE. This design was chosen to investigate the interactions between MazE and MazF and their respective binding regions. The main principle and process were consistent with those of complex disruption by small molecules, which has been mentioned above. The concentration of the MazEF complex was fixed at 4 μM, and the concentration of competing peptides was 20 μM. Furthermore, all of the proteins and peptides used in this assay were prepared in 20 mM Tris, pH 8.0, and 200 mM NaCl. The MazEF complex was incubated with the peptides for 30 min at 37 °C before fluorescence measurement.

| Substance | disruption of the MazEF complex (RNase activity) |
| --- | --- |
| DSQGKE [Peptide A, MazE-mimicking peptide DSQGKE (69–74)] | approximately 65% |
| EYLCDSQGKEML [Peptide F, MazE-mimicking peptide […]; (65–76)] | 80−83% |
| YLCDSQGKEML [Peptide E, MazE-mimicking peptide […]; (66–76)] | 80−83% |

Same assay, conditions: 20 μM peptide, 4 μM MazEF complex; 30 min at 37 °C

| Substance | RNase activity compared with the related peptide (in words) |
| --- | --- |
| EYLCDSQGKE [Peptide C, MazE-mimicking peptide […]; (65–74)] | did not exhibit significant differences from Peptide A |
| KSLD [Peptide G, MazF-mimicking peptide KSLD (79–82)] | no significant difference |
| KSLDWKAR [Peptide I, MazF-mimicking peptide KSLDWKAR (79–86)] | dramatic increase in RNase activity |
| QVKSLD [Peptide H, MazF-mimicking peptide QVKSLD (77–82)] | no significant difference |
| QVKSLDWKAR [Peptide J, MazF-mimicking peptide […]; (77–86)] | dramatic increase in RNase activity |
| YLCDSQGKE [Peptide B, MazE-mimicking peptide … (66–74)] | did not exhibit significant differences from Peptide A |
